Results reported in US6737383B1, “Herbicidal oxadiazolidines” (priority 1999, dated 2004).

Columns and labels:
[1] = tested on: velvetleaf; experiment: Test B pre/postemergence velvetleaf; type: in vivo, Abutilon theophrasti
How it was run: (§1)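 Test chemicals in a non-phytotoxic solvent mixture with surfactant were sprayed preemergence onto planted seeds and postemergence onto plants 2 to 18 cm tall (1- to 4-leaf stage). After twelve to sixteen days in a greenhouse, injury was visually rated against untreated controls from 0 (no effect) to 10 (complete control).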

[2] = tested on: surinam grass; experiment: Test B pre/postemergence surinam grass; type: in vivo, Brachiaria decumbens
How it was run: as §1

[3] = tested on: cocklebur; experiment: Test B pre/postemergence cocklebur; type: in vivo, Xanthium strumarium
How it was run: as §1

[4] = tested on: corn; experiment: Test B pre/postemergence corn; type: in vivo, Zea mays
How it was run: as §1

[5] = tested on: soybean; experiment: Test B pre/postemergence soybean; type: in vivo, Glycine max
How it was run: as §1

[6] = tested on: pigweed; experiment: Test B pre/postemergence pigweed; type: in vivo, Amaranthus retroflexus
How it was run: as §1

[7] = tested on: wild oat; experiment: Test B pre/postemergence wild oat; type: in vivo, Avena fatua
How it was run: as §1

[8] = tested on: bedstraw; experiment: Test B pre/postemergence bedstraw; type: in vivo, Galium aparine
How it was run: as §1

[9] = tested on: blackgrass; experiment: Test B pre/postemergence blackgrass; type: in vivo, Alopecurus myosuroides
How it was run: as §1

[10] = tested on: morningglory; experiment: Test B pre/postemergence morningglory; type: in vivo, Ipomoea hederacea
How it was run: as §1

[11] = tested on: wheat; experiment: Test B pre/postemergence wheat; type: in vivo, Triticum aestivum
How it was run: as §1

[12] = tested on: rape; experiment: Test B pre/postemergence rape; type: in vivo, Brassica napus
How it was run: as §1

[13] = tested on: giant foxtail; experiment: Test B pre/postemergence giant foxtail; type: in vivo, Setaria faberii
How it was run: as §1

[14] = tested on: purple nutsedge; experiment: Test B pre/postemergence purple nutsedge; type: in vivo, Cyperus rotundus
How it was run: as §1

[15] = tested on: crabgrass; experiment: Test B pre/postemergence crabgrass; type: in vivo, Digitaria sanguinalis
How it was run: as §1

[16] = Preemergence, Rate 62 g/ha, scale of 0 to 10 where 0 is no effect and 10 is complete control
[17] = Preemergence, Rate 250 g/ha, scale of 0 to 10 where 0 is no effect and 10 is complete control
[18] = Preemergence, Rate 500 g/ha, scale of 0 to 10 where 0 is no effect and 10 is complete control
[19] = Rate 62 g/ha, Postemergence, scale 0 to 10 (0 no effect, 10 complete control)
[20] = Rate 125 g/ha, Postemergence, scale of 0 to 10 where 0 is no effect and 10 is complete control
[21] = Rate 250 g/ha, Postemergence, scale of 0 to 10 where 0 is no effect and 10 is complete control
[22] = Rate 500 g/ha, Postemergence, scale 0 to 10, 0 no effect, 10 complete control

COC(Cn1c(=O)on(C(=O)N(c2ccc(F)cc2)C(C)C)c1=O)OC [Compound 317]
Velvetleaf plant response rating [1, 16]: 1 | Velvetleaf plant response rating (0 to 10 scale) ([1]; Preemergence, Rate 125 g/ha): 6 | Velvetleaf plant response rating [1, 17]: 6 | Velvetleaf plant response rating [1, 18]: 8 | Velvetleaf plant response rating [1, 19]: 0 | Velvetleaf plant response rating [1, 20]: 0 | Plant response rating, Velvetleaf [1, 21]: 0 | B. signalgrass plant response rating [2, 16]: 5 | B. signalgrass plant response rating (0 to 10 scale, 0 is no effect, 10 is complete control) ([2]; Preemergence, Rate 125 g/ha): 6 | B. signalgrass plant response rating [2, 17]: 7 | B. signalgrass plant response rating [2, 18]: 8 | B. signalgrass plant response rating [2, 19]: 0 | B. signalgrass plant response rating [2, 20]: 1 | Plant response rating, B. signalgrass [2, 21]: 7 | B. signalgrass plant response rating [2, 22]: 8 | Cocklebur plant response rating (0 to 10 scale) ([3]; Preemergence, Rate 125 g/ha): 0 | Cocklebur plant response rating [3, 18]: 0 | Cocklebur plant response rating [3, 19]: 0 | Cocklebur plant response rating [3, 20]: 0 | Plant response rating, Cocklebur [3, 21]: 0 | Cocklebur plant response rating [3, 22]: 1 | Corn plant response rating [4, 16]: 0 | Corn plant response rating (0 to 10 scale) ([4]; Preemergence, Rate 125 g/ha): 2 | Corn plant response rating [4, 18]: 5 | Corn plant response rating [4, 19]: 0 | Corn plant response rating [4, 20]: 0 | Plant response rating, Corn [4, 21]: 2 | Corn plant response rating [4, 22]: 3 | Soybean plant response rating [5, 16]: 0 | Soybean plant response rating (0 to 10 scale) ([5]; Preemergence, Rate 125 g/ha): 0 | Soybean plant response rating [5, 17]: 0 | Soybean plant response rating [5, 18]: 4 | Soybean plant response rating [5, 19]: 3 | Soybean plant response rating [5, 20]: 4 | Plant response rating, Soybean [5, 21]: 6 | Redroot pigweed plant response rating [6, 16]: 2 | Redroot pigweed plant response rating (0 to 10 scale) ([6]; Preemergence, Rate 125 g/ha): 7 | Redroot pigweed plant response rating [6, 17]: 7 | Redroot pigweed plant response rating [6, 18]: 10 | Redroot pigweed plant response rating [6, 19]: 0 | Redroot pigweed plant response rating [6, 20]: 0 | Plant response rating, Redroot pigweed [6, 21]: 3 | Wild oats plant response rating [7, 16]: 5 | Wild oats plant response rating (0 to 10 scale) ([7]; Preemergence, Rate 125 g/ha): 8 | Wild oats plant response rating [7, 17]: 8 | Wild oats plant response rating [7, 18]: 10 | Wild oats plant response rating [7, 19]: 0 | Wild oats plant response rating [7, 20]: 0 | Plant response rating, Wild oats [7, 21]: 0 | Bedstraw plant response rating [8, 16]: 0 | Bedstraw plant response rating [8, 19]: 2 | Bedstraw plant response rating [8, 20]: 6 | Plant response rating, Bedstraw [8, 21]: 8 | Blackgrass plant response rating [9, 16]: 3 | Blackgrass plant response rating (0 to 10 scale) ([9]; Preemergence, Rate 125 g/ha): 8 | Blackgrass plant response rating [9, 17]: 8 | Blackgrass plant response rating [9, 18]: 10 | Blackgrass plant response rating [9, 19]: 8 | Blackgrass plant response rating [9, 20]: 8 | Plant response rating, Blackgrass [9, 21]: 8 | Blackgrass plant response rating [9, 22]: 9 | Morningglory plant response rating [10, 16]: 0 | Morningglory plant response rating (0 to 10 scale) ([10]; Preemergence, Rate 125 g/ha): 0 | Morningglory plant response rating [10, 17]: 0 | Morningglory plant response rating [10, 18]: 0 | Morningglory plant response rating [10, 19]: 1 | Morningglory plant response rating [10, 20]: 3 | Plant response rating, Morningglory [10, 21]: 3 | Wheat plant response rating [11, 16]: 1 | Wheat plant response rating (0 to 10 scale) ([11]; Preemergence, Rate 125 g/ha): 2 | Wheat plant response rating [11, 17]: 7 | Wheat plant response rating [11, 18]: 8 | Wheat plant response rating [11, 19]: 0 | Wheat plant response rating [11, 20]: 1 | Plant response rating, Wheat [11, 21]: 5 | Rape plant response rating [12, 16]: 0 | Rape plant response rating (0 to 10 scale) ([12]; Preemergence, Rate 125 g/ha): 2 | Rape plant response rating [12, 17]: 8 | Rape plant response rating [12, 18]: 10 | Rape plant response rating [12, 19]: 0 | Rape plant response rating [12, 20]: 0 | Plant response rating, Rape [12, 21]: 1 | Giant foxtail plant response rating [13, 16]: 9 | Giant foxtail plant response rating (0 to 10 scale) ([13]; Preemergence, Rate 125 g/ha): 10 | Giant foxtail plant response rating [13, 17]: 10 | Giant foxtail plant response rating [13, 18]: 10 | Giant foxtail plant response rating [13, 19]: 5 | Giant foxtail plant response rating [13, 20]: 5 | Plant response rating, Giant foxtail [13, 21]: 8 | Nutsedge plant response rating [14, 16]: 0 | Nutsedge plant response rating [14, 17]: 0 | Nutsedge plant response rating [14, 18]: 0 | Nutsedge plant response rating [14, 19]: 0 | Nutsedge plant response rating [14, 20]: 0 | Plant response rating, Nutsedge [14, 21]: 0 | Crabgrass plant response rating [15, 16]: 6 | Crabgrass plant response rating (0 to 10 scale) ([15]; Preemergence, Rate 125 g/ha): 7 | Crabgrass plant response rating [15, 17]: 8 | Crabgrass plant response rating [15, 18]: 8 | Crabgrass plant response rating [15, 19]: 2 | Crabgrass plant response rating [15, 20]: 5 | Plant response rating, Crabgrass [15, 21]: 8
